Patent US11111245B2, “Derivatives of N-cycloalkyl/heterocycloalkyl-4-(imidazo[1,2-a]pyridine)pyrimidin-2-amine as therapeutic agents” (Aucentra Therapeutics Pty Ltd, priority 2017, dated 2021)

Legend:
[1] = target: CDK9/T1 (Homo sapiens, UniProt P50750); test: ADP Glo Kinase assay CDK9/T1; assay type: biochemical; details: CDK9T1; read-out: CDK inhibition, Ki (μM) CDK9T1
Procedure, shortened: (§1)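 Other CDKs and further kinases were profiled externally by radiometric assay. In-house ADP Glo assays covered CDK4/D1 and CDK6/D3 (RB-CTF substrate, pH 7.5 Tris buffer with MgCl2, DTT, BSA) and CDK9/T1 (RBER-IRStide substrate), 40 min at 37° C.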

[2] = system: leukemia cell lines; test: Resazurin cell viability assay on leukemia cell lines (72 h growth inhibition, GI50); assay type: cell-based; details: Homo sapiens, MV4-11 cells
Procedure, shortened: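 Solid tumour cells: MTT. Leukaemia cells: resazurin. GI50 fitted by non-linear regression.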

[3] = target: CDK6/D3 (Homo sapiens, UniProt Q00534); test: ADP Glo Kinase assay CDK6/D3; assay type: biochemical; details: CDK6D3; for remaining activity at 10 µM: compound at 10 μM, read-out: residual activity (%) at 10 μM CDK6D3; for Ki: read-out: CDK inhibition, Ki (μM) CDK6D3
CDK6/D3, sequence (Q00534 whole entry): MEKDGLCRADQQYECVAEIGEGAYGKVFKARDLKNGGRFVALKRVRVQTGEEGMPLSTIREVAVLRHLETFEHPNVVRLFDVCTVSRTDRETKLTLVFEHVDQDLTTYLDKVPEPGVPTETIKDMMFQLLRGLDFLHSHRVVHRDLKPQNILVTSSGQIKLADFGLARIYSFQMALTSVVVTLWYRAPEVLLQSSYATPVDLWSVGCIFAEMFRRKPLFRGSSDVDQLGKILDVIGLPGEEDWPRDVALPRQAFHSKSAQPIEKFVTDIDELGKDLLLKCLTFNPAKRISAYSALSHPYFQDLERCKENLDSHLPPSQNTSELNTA
CDK6/D3, sequence (P30281 whole entry partner): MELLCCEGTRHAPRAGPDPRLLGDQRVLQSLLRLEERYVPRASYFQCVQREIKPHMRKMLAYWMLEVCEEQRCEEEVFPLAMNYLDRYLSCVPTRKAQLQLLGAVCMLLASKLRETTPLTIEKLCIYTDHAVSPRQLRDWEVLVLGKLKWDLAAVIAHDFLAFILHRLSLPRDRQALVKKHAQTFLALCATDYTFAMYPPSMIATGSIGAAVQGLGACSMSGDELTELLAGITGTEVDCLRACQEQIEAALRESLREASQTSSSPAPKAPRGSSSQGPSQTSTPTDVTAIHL
Procedure, shortened: (§2)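 CDK4/D1 and CDK6/D3 were run in […] Tris pH 7.5, 20 mM MgCl2, 0.4 mM DTT, 0.1 mg/ml BSA with RB-CTF substrate; CDK9/T1 used RBER-IRStide. ATP-started reactions ran 40 min at 37° C, with ADP Glo luminescence read-out. IC50 came from 4-parameter fits; Ki from Km (ATP) and IC50.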

[4] = target: CDK4/D1 (Homo sapiens, UniProt P11802); test: ADP Glo Kinase assay CDK4/D1; assay type: biochemical; details: CDK4D1; for remaining activity at 10 µM: compound at 10 μM, read-out: residual activity (%) at 10 μM CDK4D1; for Ki: read-out: CDK inhibition, Ki (μM) CDK4D1
CDK4/D1, sequence (P11802 whole entry): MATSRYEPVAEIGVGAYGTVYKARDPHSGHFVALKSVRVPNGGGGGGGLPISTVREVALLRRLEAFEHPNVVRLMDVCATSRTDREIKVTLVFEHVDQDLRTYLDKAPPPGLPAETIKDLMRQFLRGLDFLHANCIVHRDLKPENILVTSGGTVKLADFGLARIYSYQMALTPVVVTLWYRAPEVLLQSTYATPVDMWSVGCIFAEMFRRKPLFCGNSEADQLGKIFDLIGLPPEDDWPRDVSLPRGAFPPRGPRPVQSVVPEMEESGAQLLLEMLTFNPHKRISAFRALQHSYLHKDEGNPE
CDK4/D1, sequence (P24385 whole entry partner): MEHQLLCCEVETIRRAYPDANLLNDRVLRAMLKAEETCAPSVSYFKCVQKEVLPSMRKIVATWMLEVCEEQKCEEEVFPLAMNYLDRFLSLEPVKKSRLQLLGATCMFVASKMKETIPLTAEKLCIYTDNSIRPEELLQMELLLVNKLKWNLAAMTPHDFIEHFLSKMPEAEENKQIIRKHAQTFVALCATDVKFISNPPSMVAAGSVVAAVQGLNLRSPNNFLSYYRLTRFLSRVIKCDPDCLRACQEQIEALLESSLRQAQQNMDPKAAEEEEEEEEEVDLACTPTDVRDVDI
Procedure, shortened: as §2

[5] = target: T1, CDKs and other kinases (Homo sapiens, UniProt P50613); test: Radiometric kinase assay (Eurofins Pharma Discovery or Reaction Biology Corporation Kinase Profiler); assay type: biochemical; details: CDK7H; for Ki: read-out: CDK inhibition, Ki (μM) CDK7H; for remaining activity at 10 µM: compound at 10 μM, read-out: residual activity (%) at 10 μM CDK7H
T1 construct: other: CDK7H; residual activity (%) at 10 μM CDK7H; compound at 10 μM
T1 sequence (P50613 whole entry): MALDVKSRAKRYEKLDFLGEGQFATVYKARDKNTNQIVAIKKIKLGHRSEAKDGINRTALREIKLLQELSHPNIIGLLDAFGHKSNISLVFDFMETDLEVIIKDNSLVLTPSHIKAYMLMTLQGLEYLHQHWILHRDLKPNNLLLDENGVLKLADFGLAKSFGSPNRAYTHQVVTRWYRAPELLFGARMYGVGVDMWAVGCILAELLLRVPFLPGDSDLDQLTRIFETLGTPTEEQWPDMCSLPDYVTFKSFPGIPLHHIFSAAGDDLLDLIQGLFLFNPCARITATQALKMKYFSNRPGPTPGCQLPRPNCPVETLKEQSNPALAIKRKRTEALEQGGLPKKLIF
Procedure, shortened: as §1

[6] = target: T2, CDKs and other kinases (Homo sapiens, UniProt P06493); test: as above; assay type: biochemical; details: CDK1B; for Ki: read-out: CDK inhibition, Ki (μM) CDK1B; for remaining activity at 10 µM: compound at 10 μM, read-out: residual activity (%) at 10 μM CDK1B
T2 construct: other: CDK1B; residual activity (%) at 10 μM CDK1B; compound at 10 μM
T2 sequence (P06493 whole entry): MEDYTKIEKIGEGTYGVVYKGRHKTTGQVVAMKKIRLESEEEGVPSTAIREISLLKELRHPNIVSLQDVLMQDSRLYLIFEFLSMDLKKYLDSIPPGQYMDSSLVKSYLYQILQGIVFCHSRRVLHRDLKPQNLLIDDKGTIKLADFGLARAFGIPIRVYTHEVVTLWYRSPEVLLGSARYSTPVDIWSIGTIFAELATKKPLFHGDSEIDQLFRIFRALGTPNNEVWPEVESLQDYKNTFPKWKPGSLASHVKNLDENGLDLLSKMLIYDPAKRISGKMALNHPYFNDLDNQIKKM
Procedure, shortened: as §1

[7] = target: T3, CDKs and other kinases (Homo sapiens, UniProt P24941); test: as above; assay type: biochemical; details: CDK2A; for Ki: read-out: CDK inhibition, Ki (μM) CDK2A; for remaining activity at 10 µM: compound at 10 μM, read-out: residual activity (%) at 10 μM CDK2A
T3 construct: other: CDK2A; residual activity (%) at 10 μM CDK2A; compound at 10 μM
Procedure, shortened: as §1

CDK9/T1, sequence (P50750 whole entry): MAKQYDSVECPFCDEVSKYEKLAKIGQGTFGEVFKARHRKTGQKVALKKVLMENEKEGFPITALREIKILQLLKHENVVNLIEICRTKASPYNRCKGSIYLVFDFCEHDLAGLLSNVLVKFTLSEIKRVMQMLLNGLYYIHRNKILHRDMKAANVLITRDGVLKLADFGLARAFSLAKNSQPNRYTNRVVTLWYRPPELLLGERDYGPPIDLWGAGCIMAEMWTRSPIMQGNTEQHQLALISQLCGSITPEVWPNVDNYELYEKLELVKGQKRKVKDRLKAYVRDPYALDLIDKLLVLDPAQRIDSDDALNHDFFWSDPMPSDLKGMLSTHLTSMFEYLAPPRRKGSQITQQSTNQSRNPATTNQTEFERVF
CDK9/T1, sequence (O60563 whole entry partner): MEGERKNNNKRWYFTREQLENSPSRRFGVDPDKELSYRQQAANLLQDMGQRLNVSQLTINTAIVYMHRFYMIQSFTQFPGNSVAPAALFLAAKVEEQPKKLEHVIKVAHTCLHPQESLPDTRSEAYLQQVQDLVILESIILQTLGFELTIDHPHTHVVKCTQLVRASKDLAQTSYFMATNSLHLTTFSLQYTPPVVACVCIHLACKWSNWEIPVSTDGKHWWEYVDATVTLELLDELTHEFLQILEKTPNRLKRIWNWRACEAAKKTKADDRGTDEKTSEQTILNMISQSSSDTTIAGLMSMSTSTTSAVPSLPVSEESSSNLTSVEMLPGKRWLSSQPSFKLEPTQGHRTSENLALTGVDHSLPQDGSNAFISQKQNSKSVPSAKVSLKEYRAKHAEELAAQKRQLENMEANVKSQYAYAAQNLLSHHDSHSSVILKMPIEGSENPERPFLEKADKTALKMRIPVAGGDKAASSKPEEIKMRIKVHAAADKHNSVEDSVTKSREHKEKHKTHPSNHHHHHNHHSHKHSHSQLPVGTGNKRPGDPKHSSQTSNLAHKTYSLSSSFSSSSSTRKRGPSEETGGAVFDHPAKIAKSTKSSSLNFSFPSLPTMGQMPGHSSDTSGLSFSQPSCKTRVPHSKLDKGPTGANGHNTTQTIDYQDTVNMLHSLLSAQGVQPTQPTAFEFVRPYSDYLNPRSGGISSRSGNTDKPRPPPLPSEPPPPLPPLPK

Structure (SMILES) | Ki [1] | GI50 [2] | remaining activity at 10 µM [3] | remaining activity at 10 µM [4] | Ki [5] | Ki [6] | Ki [7] | remaining activity at 10 µM [5] | remaining activity at 10 µM [6] | remaining activity at 10 µM [7] | residual activity at 10 µM [4] | residual activity at 10 µM [7] | Ki [3] | Ki [4]
Cc1cnc(N[C@H]2CC[C@H](N)CC2)nc1-c1cnc2ccc(-c3cccnc3)cn12 [Compound 29, (1r,4r)-N^1-(5-Methyl-4-(6-(pyridin-3-yl)imidazo[1,2-a]pyridin-3-yl)pyrimidin-2-yl)cyclohexane-1,4-diamine] | 0.051 µM | 0.101 ± 0.039 µM | 45% | 17% | 2.73 µM | 3.57 µM | 1.83 µM | – | – | – | – | – | – | –
Cc1cnc(N[C@H]2CC[C@H](N)CC2)nc1-c1cnc2ccc(-c3ncccc3F)cn12 [Compound 30, (1r,4r)-N^1-(4-(6-(3-Fluoropyridin-2-yl)imidazo[1,2-a]pyridin-3-yl)-5-methylpyrimidin-2-yl)cyclohexane-1,4-diamine] | 0.12 µM | 0.017 ± 0.006 µM | 39% | 17% | – | – | – | 13% | 67% | 49% | – | – | – | –
Cc1cnc(N[C@H]2CC[C@H](N)CC2)nc1-c1cnc2ccc(NCc3ccc(F)cc3)cn12 [Compound 32, (1r,4r)-N^1-(4-(6-((4-Fluorobenzyl)amino)imidazo[1,2-a]pyridin-3-yl)-5-methylpyrimidin-2-yl)cyclohexane-1,4-diamine] | 0.094 µM | 0.066 ± 0.014 µM | 36% | 16% | 5.39 µM | > 10 µM | 0.63 µM | – | – | – | – | – | – | –
Cc1cnc(N[C@H]2CC[C@H](N)CC2)nc1-c1cnc2ccc(-c3ccncc3)cn12 [Compound 37, (1r,4r)-N^1-(5-Methyl-4-(6-(pyridin-4-yl)imidazo[1,2-a]pyridin-3-yl)pyrimidin-2-yl)cyclohexane-1,4-diamine] | 0.12 µM | 0.013 ± 0.002 µM | 96% | 7% | 1.18 µM | 0.17 µM | 0.044 µM | – | – | – | – | – | – | –
N[C@H]1CC[C@H](Nc2ncc(Cl)c(-c3cnc4ccc(-c5cncnc5)cn34)n2)CC1 [Compound 38, (1r,4r)-N^1-(5-Chloro-4-(6-(pyrimidin-5-yl)imidazo[1,2-a]pyridin-3-yl)pyrimidin-2-yl)cyclohexane-1,4-diamine] | 0.065 µM | 0.052 ± 0.011 µM | 80% | 0% | 0.58 µM | 2.56 µM | 0.91 µM | – | – | – | – | – | – | –
Cc1cnc(N[C@H]2CC[C@H](N)CC2)nc1-c1cnc2ccc(-c3cncnc3)cn12 [Compound 39, (1r,4r)-N^1-(5-Methyl-4-(6-(pyrimidin-5-yl)imidazo[1,2-a]pyridin-3-yl)pyrimidin-2-yl)cyclohexane-1,4-diamine] | 0.165 µM | 0.082 ± 0.02 µM | 100% | 36% | 5.6 µM | 7.36 µM | 4.74 µM | – | – | – | – | – | – | –
N[C@H]1CC[C@H](Nc2ncc(Cl)c(-c3cnc4ccccn34)n2)CC1 [Compound 42, (1r,4r)-N^1-(5-chloro-4-(imidazo[1,2-a]pyridin-3-yl)pyrimidin-2-yl)cyclohexane-1,4-diamine] | 0.061 µM | 0.007 ± 0.001 µM | 45% | 0% | 0.024 µM | 0.46 µM | 0.046 µM | – | – | – | – | – | – | –

Compounds with a lower Ki [1], results first:

Ki [1] | GI50 [2] | remaining activity at 10 µM [3] | remaining activity at 10 µM [4] | Ki [5] | Ki [6] | Ki [7] | remaining activity at 10 µM [5] | remaining activity at 10 µM [6] | remaining activity at 10 µM [7] | residual activity at 10 µM [4] | residual activity at 10 µM [7] | Ki [3] | Ki [4] | Structure (SMILES)
0.018 µM | 0.005 ± 0.002 µM | 11% | – | – | – | – | 13% | 32% | – | 45% | 145% | – | – | Cc1cnc(N[C@H]2CC[C@H](N)CC2)nc1-c1cnc2ccc(Nc3ccccc3)cn12 [Compound 31, (1r,4r)-N^1-(5-Methyl-4-(6-(phenylamino)imidazo[1,2-a]pyridin-3-yl)pyrimidin-2-yl)cyclohexane-1,4-diamine]
0.022 µM | 0.004 ± 0.001 µM | 12% | 7% | – | – | – | 7% | 11% | 13% | – | – | – | – | Fc1cnc(N[C@H]2CC[C@H](NC3CCOCC3)CC2)nc1-c1cnc2ccccn12 [Compound 33, (1r,4r)-N^1-(5-Fluoro-4-(imidazo[1,2-a]pyridin-3-yl)pyrimidin-2-yl)-N4-(tetrahydro-2H-pyran-4-yl) cyclohexane-1,4-diamine]
0.005 µM | 0.095 ± 0.031 µM | – | – | 2.24 µM | 2.16 µM | 0.09 µM | – | – | – | – | – | 1.05 µM | 2.8 µM | Cc1cnc(N[C@H]2CC[C@H](N)CC2)nc1-c1cnc2ccc(Nc3cccnc3)cn12 [Compound 34, (1r,4r)-N^1-(5-Methyl-4-(6-(pyridin-3-ylamino)imidazo [1,2-a]pyridin-3-yl)pyrimidin-2-yl)cyclohexane-1,4-diamine]
0.007 µM | 0.011 ± 0.002 µM | – | – | 0.27 µM | 0.88 µM | 0.26 µM | – | – | – | – | – | 0.394 µM | 0.79 µM | N[C@H]1CC[C@H](Nc2ncc(Cl)c(-c3cnc4ccc(-c5cccnc5)cn34)n2)CC1 [Compound 35, (1r,4r)-N^1-(5-Chloro-4-(6-(pyridin-3-yl)imidazo[1,2-a]pyridin-3-yl)pyrimidin-2-yl)cyclohexane-1,4-diamine]
0.016 µM | 0.004 ± 0.001 µM | 48% | 4% | 0.094 µM | 0.065 µM | 0.016 µM | – | – | – | – | – | – | – | N[C@H]1CC[C@H](Nc2ncc(Cl)c(-c3cnc4ccc(-c5ccncc5)cn34)n2)CC1 [Compound 36, (1r,4r)-N^1-(5-Chloro-4-(6-(pyridin-4-yl)imidazo[1,2-a]pyridin-3-yl)pyrimidin-2-yl)cyclohexane-1,4-diamine]
0.014 µM | 0.005 ± 0.001 µM | 72% | 30% | 0.038 µM | 0.88 µM | 0.73 µM | – | – | – | – | – | – | – | N[C@H]1CC[C@H](Nc2ncc(Cl)c(-c3cnc4ccc(-c5ncccc5F)cn34)n2)CC1 [Compound 40, (1r,4r)-N^1-(5-Chloro-4-(6-(3-fluoropyridin-2-yl)imidazo [1,2-a]pyridin-3-yl)pyrimidin-2-yl)cyclohexane-1,4-diamine]
0.045 µM | 0.013 ± 0.002 µM | 55% | 40% | 0.958 µM | 2.66 µM | 0.059 µM | – | – | – | – | – | – | – | N[C@H]1CC[C@H](Nc2ncc(Cl)c(-c3cnc4ccc(NCc5ccc(F)cc5)cn34)n2)CC1 [Compound 41, (1r,4r)-N^1-(5-Chloro-4-(6-((4-fluorobenzyl)amino)imidazo[1,2-a]pyridin-3-yl)pyrimidin-2-yl)cyclohexane-1,4-diamine]
0.008 µM | 0.004 ± 0.001 µM | 2% | 0% | – | – | – | 3% | 4% | 1% | – | – | – | – | N[C@H]1CC[C@H](Nc2ncc(F)c(-c3cnc4cc(Cl)ccn34)n2)CC1 [Compound 43, (1r,4r)-N^1-(4-(7-Chloroimidazo[1,2-a]pyridin-3-yl)-5-fluoropyrimidin-2-yl)cyclohexane-1,4-diamine]
0.007 µM | < 0.001 µM | 1% | 2% | – | – | – | 2% | 0% | 0% | – | – | – | – | N[C@H]1CC[C@H](Nc2ncc(F)c(-c3cnc4cc(-c5ccccc5)ccn34)n2)CC1 [Compound 44, (1r,4r)-N^1-(5-Fluoro-4-(7-phenylimidazo[1,2-a]pyridin-3-yl)pyrimidin-2-yl)cyclohexane-1,4-diamine]
0.006 µM | < 0.001 µM | 0% | 5% | – | – | – | 2% | 0% | 0% | – | – | – | – | N[C@H]1CC[C@H](Nc2ncc(F)c(-c3cnc4cc(-c5cccnc5)ccn34)n2)CC1 [Compound 45, (1r,4r)-N^1-(5-Fluoro-4-(7-(pyridin-3-yl)imidazo[1,2-a]pyridin-3-yl)pyrimidin-2-yl)cyclohexane-1,4-diamine]
